Active and inactive are the calls of the source. No cut-off for these calls is given here.
What was measured:
HMC1 [1] = test: Immunomodulatory activity in human HMC1 cells assessed as inhibition of phorbol 12-myristate 13-acetate/A23187-stimulated IL-6 secretion by ELISA method; assay type: functional, cell-based
HMC1 [2] = test: Immunomodulatory activity in human HMC1 cells assessed as inhibition of phorbol 12-myristate 13-acetate/A23187-stimulated IL-6 mRNA expression at 1 to 100 uM treated 1 hr prior to 5 hrs phorbol 12-myristate 13-acetate/A23187 challenge by RT-PCR analysis; assay type: functional, cell-based
HMC1 [3] = test: Immunomodulatory activity in human HMC1 cells assessed as inhibition of phorbol 12-myristate 13-acetate/A23187-stimulated histamine secretion at 100 uM treated 1 hr prior to 6 hrs phorbol 12-myristate 13-acetate/A23187 challenge by histamine assay kit; assay type: functional, cell-based
[4] = Cytotoxicity against human HMC1 cells assessed as cell viability at 1 to 100 uM after 8 hrs by MTT colorimetric assay; assay type: cell-based; settings: hmc1, 8 h
HMC1 [5] = test: Immunomodulatory activity in human HMC1 cells assessed as inhibition of phorbol 12-myristate 13-acetate/A23187-stimulated p38 phosphorylation at 1 to 100 uM treated 1 hr prior to 30 mic phorbol 12-myristate 13-acetate/A23187 challenge; assay type: functional, cell-based
HMC1 [6] = test: Immunomodulatory activity in human HMC1 cells assessed as inhibition of phorbol 12-myristate 13-acetate/A23187-stimulated JNK phosphorylation at 1 to 100 uM treated 1 hr prior to 30 mic phorbol 12-myristate 13-acetate/A23187 challenge; assay type: functional, cell-based
HMC1 [7] = test: Immunomodulatory activity in human HMC1 cells assessed as inhibition of phorbol 12-myristate 13-acetate/A23187-stimulated ERK phosphorylation at 1 to 100 uM treated 1 hr prior to 30 mins phorbol 12-myristate 13-acetate/A23187 challenge; assay type: functional, cell-based
HMC1 [8] = test: Suppression of NF-kappaB activation in human HMC1 cells assessed as inhibition of phorbol 12-myristate 13-acetate/A23187-stimulated nuclear Rel A/p65 level at 1 to 100 uM treated 1 hr prior to 2 hrs phorbol 12-myristate 13-acetate/A23187 challenge by Western blotting analysis; assay type: cell-based
HMC1 [9] = test: Suppression of NF-kappaB activation in human HMC1 cells assessed as inhibition of phorbol 12-myristate 13-acetate/A23187-stimulated IkappaB-alpha degradation at 1 to 100 uM treated 1 hr prior to 2 hrs phorbol 12-myristate 13-acetate/A23187 challenge by Western blotting analysis; assay type: cell-based
HMC1 [10] = test: Suppression of NF-kappaB activation in human HMC1 cells assessed as inhibition of phorbol 12-myristate 13-acetate/A23187-stimulated luciferase activity at 1 to 100 uM treated 1 hr prior to 24 hrs phorbol 12-myristate 13-acetate/A23187 challenge by luciferase reporter gene assay; assay type: cell-based
HMC1 [11] = test: Immunomodulatory activity in human HMC1 cells assessed as inhibition of phorbol 12-myristate 13-acetate/A23187-stimulated RIP-2 activation at 1 to 100 uM treated 1 hr prior to 30 mins phorbol 12-myristate 13-acetate/A23187 challenge by Western blotting analysis; assay type: functional, cell-based
HMC1 [12] = test: Immunomodulatory activity in human HMC1 cells assessed as inhibition of phorbol 12-myristate 13-acetate/A23187-stimulated caspase 1 activation at 1 to 100 uM treated 1 hr prior to 30 mins phorbol 12-myristate 13-acetate/A23187 challenge by Western blotting analysis; assay type: functional, cell-based
HMC1 [13] = test: Immunomodulatory activity in human HMC1 cells assessed as inhibition of phorbol 12-myristate 13-acetate/A23187-stimulated caspase 1 activation at 1 to 100 uM treated 1 hr prior to 30 mins phorbol 12-myristate 13-acetate/A23187 challenge by caspase colorimetric assay; assay type: functional, cell-based
HMC1 [14] = test: Immunomodulatory activity in human HMC1 cells assessed as inhibition of phorbol 12-myristate 13-acetate/A23187-stimulated IL1-beta secretion at 1 to 100 uM treated 1 hr prior to 30 mins phorbol 12-myristate 13-acetate/A23187 challenge by Western blotting analysis; assay type: functional, cell-based
HMC1 [15] = test: Immunomodulatory activity in human HMC1 cells assessed as inhibition of phorbol 12-myristate 13-acetate/A23187-stimulated IL1-beta secretion treated 1 hr prior to 30 mins phorbol 12-myristate 13-acetate/A23187 challenge by Western blotting analysis; assay type: functional, cell-based

In the case of `C=C1CCC[C@]2(C)C[C@]3(O)OC(=O)C(C)=C3C[C@@H]12` [ATRACTYLENOLIDE III], the inhibition (HMC1 [1]) is reported as “Dose-dependent effect”, the inhibition (HMC1 [2]) is reported as “Active” and the inhibition (HMC1 [3]) is reported as “Active”. For the same molecule, the Activity [4] was “Non-toxic”, the inhibition (HMC1 [5]) was “Active” and the inhibition (HMC1 [6]) was “Active”. For the same molecule, the inhibition (HMC1 [7]) was “inactive”, the inhibition (HMC1 [8]) was “Active” and the inhibition (HMC1 [9]) was “Active”. The inhibition (HMC1 [10]) was “Active”, the inhibition (HMC1 [11]) was “Dose-dependent effect” and the inhibition (HMC1 [12]) was “Dose-dependent effect”. The inhibition (HMC1 [13]) was “Active” and the inhibition (HMC1 [14]) was “Active”.

In the case of `C[C@@H]1C[C@H]2[C@@H]3CCC4=CC(=O)C=C[C@]4(C)[C@@]3(F)[C@@H](O)C[C@]2(C)[C@@]1(O)C(=O)CO`, the inhibition (HMC1 [15]) is reported as “Active”.

From ChEMBL document CHEMBL1687905, “Blockade of IL-6 secretion pathway by the sesquiterpenoid atractylenolide III” (J Nat Prod, 2011)
